Where “and” joins values, the source holds several entries; their conditions need not be identical. Equal values may be shown once. Entries after “also recorded” stand apart in the source; their conditions may differ. No end group written: not given here.
How the values were obtained:
9 L glioblastoma = details: for lympho-mononuclear inflammatory cell infiltrates in brain: histopathology, day 20
Procedure: Rat 9 L glioblastoma cells were obtained from the American Type Culture Collection (Washington, D.C.) and certified as pathogen-free. The cells were maintained in Dulbecco's Modified Eagle's Medium (DMEM) supplemented with 5% fetal calf serum (FCS) and 2 mM glutamine. Antibiotics were not added to the medium. Prior to injection, the cells were rinsed with phosphate-buffered saline (PBS), detached from the culture surfaces and dissociated into single cell suspensions with 0.25% trypsin/0.05% EDTA. The dissociated cells were washed 3 times in serum-free DMEM and finally suspended in serum-free DMEM at a density of 5×10^6 viable cells/ml. Viable cell density was determined using Trypan blue exclusion and a hemocytometer chamber.
An in vivo model of glioblastoma was generated in adult (250-300 grams) Long Evans rats. Rats were anesthetized with a single intraperitoneal injection of a cocktail containing 100 mg/kg ketamine and […] in 50% ethanol. After anesthetization, the head was shaved and prepped with povidone iodine, and the rat was placed in a stereotactic headframe. A midline incision was made and a 3 mm burr hole was drilled over the frontal lobe, and 2 μl of 9 L glioma cell suspension (10,000 cells total) was injected directly into the brain using a Hamilton syringe with attached 26-gauge needle placed at a depth of 3.5 mm. After removal of the needle, the wound was washed with sterile saline, the animal was removed from the frame and the skin was closed with resorbable sutures. The rats were returned to their cages and observed for any signs of deterioration including weight loss, reduced food and water intake, hemiparesis, seizures, or inactivity. If any degree of suffering was observed, the animals were euthanized with 120 mg/kg sodium pentobarbital. Animals were observed daily and weighed weekly.
The tumor was allowed to develop for 5 days, followed by anti-neoplastic treatment. Rats were divided into 6 treatment groups: vehicle control; low (45 μg/kg) thymalfasin; high (200 μg/kg) thymalfasin; low thymalfasin+BCNU; high thymalfasin+BCNC; and BCNU (9.4 mg/kg) only. BCNU was administered as a single intraperitoneal (I.P.) injection on day 6 after the intracerebral tumor inoculation. Rats treated with thymalfasin were given single I.P. injections of thymalfasin for 3 consecutive days, beginning on day 6 after tumor cell inoculation. Rats were sacrificed on day 20 post tumor inoculation. The rats were killed by I.P. injection of 120 mg/kg sodium pentobarbital. The brains were harvested, sectioned, immersion fixed in Histochoice (Amresco Co., Solon, Ohio), and processed for paraffin embedding. Tumor burden was assessed from the gross tissue blocks and the histological sections stained with hematoxylin and eosin. Histological sections were also used in immunohistochemical staining studies to detect inflammatory cell infiltrates.
A semiquantitative histological grading scale was used to assess tumor burden for inter-group comparisons: 0—cure, no residual tumor; 1—microscopic tumor (<1 mm) confined to the superficial cortex; 2—tumor mass occupying less than 25% of the hemisphere cross section (1-2 mm); 3—tumor mass occupying up to 50% of the hemisphere cross section (2-3 mm) and extending into deep structures; 4—massive tumor burden with involvement of 50-90% of the hemisphere cross section, with herniation. The sections were coded and graded simultaneously by two separate individuals without knowledge of treatment group. […]

293 human kidney cells = assay: Microtiter immunocytochemical ELISA (MICE) assay of pro-apoptosis/survival gene products, 293 cells; format: cell-based
Procedure: (§1) Microtiter Immunocytochemical ELISA (MICE) Assays (de la Monte, 1999) were done on 9 L and 293 cells. Cells were seeded in 96-well plates, treated with 10^−5M thymalfasin for 24 hours, and histofixed overnight prior to analysis using MICE assay. the fixed cells were permeabilized with 0.05% saponin in Tris-buffered saline (50 mM Tris, pH 7.5, 0.9% NaCl; TBS), blocked with Superblock-TBS (Pierce, Rockford, Ill.), and then incubated overnight at 4° C. with primary antibodies to proliferating cell nuclear antigen (PCNA), bcl-2, p21/Wwaf-1, p53, FasL, FasR, TNF-R1, or GAPDH, each diluted to 0.5-1 μg/ml in TBS containing 0.05% Tween-20 and 0.5% bovine serum albumin (TBST-BSA). Immunoreactivity was detected using horseradish peroxidase conjugated secondary antibody (Pierce, Rockford, Ill.) and the TMB soluble substrate (Pierce, Rockford, Ill.). Reactions were stopped by the addition of 1 M H2SO4 and absorbances were measured at 450 nm in a Spectracount microplate reader (Packard Instrument Co., Meriden, Conn.). Subsequently, cell density was measured by staining the adherent cells with Coomassie blue dye and measuring the absorbance of the eluted dye (de la Monte, 1999). The MICE index was the calculated ratio of TMB and Coomassie blue absorbance measured in the same culture well. Mean±S.D. of results obtained from 16 replicate culture wells were used for inter-group statistical comparisons.
(§2) In this regard, the expression of gene products that promote either apoptosis or cell survival were examined, using housekeeping gene expression as control. The studies were performed in 96-well plates using the microtiter immunocytochemical ELISA […] assay to generate data from multiple replicate cultures. […] Thus, the results of the MICE assays indicate that for the two cell lines, thymalfasin works via different pathways to increase the susceptibility of the cells to cell death by apoptosis.

9 L glioblastoma cells [1] = assay: BCNU-mediated killing of thymalfasin-treated 9 L cells; format: cell-based, rat; details: 24 or 72 hours thymalfasin treatment
9 L glioblastoma cells [2] = assay: Microtiter immunocytochemical ELISA (MICE) assay of pro-apoptosis/survival gene products, 9 L cells; format: cell-based, rat
Procedure: as §1, §2

[3] = cited from earlier work
[4] = system: Rat 9 L glioblastoma cells; assay: Crystal violet (CV) cell viability assay in thymalfasin-treated 9 L cells; format: cell-based; details: thymalfasin vs vehicle-treated control
Procedure: (§3) All cell lines were kept at 37° C. in a humidified atmosphere containing 5% CO2. The cell lines were obtained from the American Type Culture Collection and were certified as free of pathogens.
(§4) Thymosin alpha 1 treatment: For acute thymalfasin treatment, cells seeded in 96-well plates at a cell density of 20,000 cells/well were treated with 10^−5 M thymalfasin for 24 hours. Cells treated chronically with thymalfasin were grown in flasks and treated every 24 hours with 10^−5 M thymalfasin (added to fresh medium) for the duration of the treatment (3 days). In addition, for the determination of a dose-response curve to thymalfasin for 9 L cells, cells were treated with serially diluted amounts of thymalfasin, yielding thymalfasin concentrations ranging from 50 µM to […].
Crystal Violet (CV) was also used to stain cells in 96-well plates. After discarding the medium, 20 μl of crystal violet was added to each well and shaken at room temperature for 10 minutes. The plates were then washed several times with warm water and dried. 100-200 μl (depending on cell density) of PBS w/1% SDS was added to each well. The plates were incubated at room temperature on a shaker until the cells were sufficiently lysed. The plates were read at 540 nm to detect differences in cell viability between the various groups tested.

[5] = system: Rat 9 L glioblastoma cells; assay: MTT assay of mitochondrial function in thymalfasin-treated 9 L cells; format: cell-based; details: 24 hours, various concentrations of thymalfasin, vs vehicle
Procedure: as §3, §4
(§5) MTT assays were conducted on 9 L and 293 cell lines to determine the effects of thymalfasin treatment and/or H2O2-induced oxidative stress on the mitochondrial function of the cells. After treatment, 10 μl of MTT solution were added to each well containing 100 μl of medium. The plates were incubated with the MTT dye in the 37° C. incubator for 15 min-1 hour, depending on the cell type. The medium was then removed, and 200 μl of acidic Isopropanol was added to each well. The plates were shaken at room temperature until cell lysis occurred, and then read in a Packard SpectraCount™ machine at 540 nm.

9 L glioblastoma cells [6] = assay: H2O2-induced oxidative stress sensitivity of thymalfasin-treated 9 L cells (MTT); format: cell-based, rat
Procedure: H2O2 was used with cells to induce oxidative stress. […] In the experiments in which serially diluted amounts of thymalfasin were administered to the cells, a constant amount of the […] H2O2 was used to treat the cells. For 9 L cells, an H2O2 curve was developed in order to determine the correct H2O2 concentration with which to treat the cells.
as §5
Validation of the ability of thymalfasin to increase the susceptibility of 9 L and 293 cells to apoptosis was sought testing H2O2-induced oxidative stress. As determined through MTT assays, 9 L cells treated with thymalfasin for 24 hours and subsequently H2O2 for 24 hours did indeed show significant loss in viability in comparison to 9 L cells treated only with H2O2 for 24 hours (FIG. 3).

9 L glioblastoma cells [7] = assay: Streptolysin O + recombinant Granzyme B killing assay (ATPlite viability); format: cell-based, rat; details: thymalfasin 24 h (acute) or 72 h (chronic), then SLO+Granzyme B 1 or 3 hours, p<0.001
Procedure: In order to determine the differential susceptibility of 9 L glioblastoma cells treated (or not) with thymalfasin to cytotoxic T-lymphocyte (CTL) induced apoptosis, experimental assays were conducted in which 9 L cells were treated both acutely for 24 hours and chronically for 72 hours with thymalfasin, after which they were harvested, re-seeded into 96-well black plates (7.5×10^5 cells/75 μl/well), and exposed to 20,000 units/ml Streptolysin O (SLO) plus 100 ng recombinant Granzyme B (reaction volume 100 μl) for 1 or 3 hours at 37° C. The SLO was used in place of perforin to permeabilize the cells, and recombinant Granzyme B was used to standardize the assay. Control studies included parallel reactions in which SLO, Granzyme B, or both were omitted. Viable cell density was measured using the ATPlite assay (Packard Instrument Company, Meriden, Conn.) which has a broad linear dynamic range correlating relative light units with cell densities between 10^3 to 10^6 cells per culture well.
In vivo, malignant neoplastic cells are killed by cytotoxic T cells and macrophages that are recruited by pro-inflammatory cytokines such as IL-2 and IL-12. […] Viability was measured using the ATP luminescence assay and within group comparisons were made to determine the relative killing associated with SLO+Granzyme B treatment. […]

[8] = system: Primary neuronal cortical cells; assay: Cell viability of primary cortical neuron cultures (CV and MTT); format: cell-based
Description: Primary cortical neuron cultures were studied to enable selection of thymalfasin doses that would not be toxic to non-neoplastic brain cells.
However, this dose is higher than established experimental and clinical dosages.

[9] = 10^-5 M thymalfasin, 24 hours, P<0.01

In the case of `O=NN(CCCl)C(=O)NCCCl` [BCNU, bischloroethyl nitrosurea], the “reduction of tumor burden in responding animals” value (9 L glioblastoma; BCNU 9.4 mg/kg I.P. single dose, nearly half the group showed no response) is reported as “up to 50%” and the “lympho-mononuclear inflammatory cell infiltrates in brain” value (9 L glioblastoma) is reported as “scant”.
With “Thymosin α-1 (SDAAVDTSSEITTKDLKEKKEVVEEAEN; ends and bridges not checked; UniProt P06454 2-29, looked up) [thymalfasin, 28-amino acid peptide, a synthetic form of a naturally occurring compound that is found in circulation]” the “change in FasL expression” value (293 human kidney cells; data not shown) was “no significant changes”, the “change in FasR expression” value (293 human kidney cells; data not shown) was “no significant changes” and the “change in TNF-R1 expression” value (293 human kidney cells; data not shown) was “no significant changes”. For the same molecule, the “reduction in bcl-2” value (293 human kidney cells; thymalfasin, P<0.01, data not shown) was 36.67%, the “tumor burden / tumor growth” value (9 L glioblastoma; Long Evans rats, 10,000 9 L cells intracerebral, I.P. treatment from day 6, sacrifice day 20, BCNU 9.4 mg/kg, thymalfasin 45 or 200 μg/kg) was “the same as control or worse” and the “lympho-mononuclear inflammatory cell infiltrates in brain” value (9 L glioblastoma) was “conspicuous”. The “intracerebral swelling and herniation” value (9 L glioblastoma; rat, in vivo) was “extreme intracerebral swelling”, the “9 L cells killed by sub-lethal concentrations of BCNU after thymalfasin treatment” value (9 L glioblastoma cells [1]) was 40% and the “increase in FasL level relative to vehicle-treated controls” value (9 L glioblastoma cells [2]; [9]) was 65.89%. For the same molecule, the “increase in FasR level relative to vehicle-treated controls” value (9 L glioblastoma cells [2]; [9]) was 44.08%, the “increase in TNF-R1 level relative to vehicle-treated controls” value (9 L glioblastoma cells [2]; [9]) was 22.18% and the GAPDH expression level (9 L glioblastoma cells [2]; thymalfasin 24 hours) was “not significantly affected”. For the same molecule, the bcl-2 expression level (9 L glioblastoma cells [2]; thymalfasin 24 hours) was “not significantly affected”, the “dose found to be safe for humans” value [3] was ≤ 16 mg/kg body weight/day and the “cell viability / direct cytotoxic effect” value [4] was “minimal effect; also recorded: no significant direct cytotoxic effects; also recorded: no direct effect”. The “cell mitochondrial functioning (MTT)” value [5] was “minimal effect; also recorded: insignificant decrease; also recorded: no direct effect”, the “decrease in mitochondrial functioning (MTT) vs cells treated only with H2O2” value (9 L glioblastoma cells [6]; 9 L cells, thymalfasin 24 hours then 270 μM H2O2 24 hours) was 26.6% and the “9 L cells killed by ordinarily non-lethal (sub-lethal) H2O2 after thymalfasin treatment” value (9 L glioblastoma cells [6]; 24 or 72 hours thymalfasin treatment) was 25% and 30-50%. For the same molecule, the “cell viability after SLO+Granzyme B relative to SLO, Granzyme B or vehicle alone” value (9 L glioblastoma cells [7]) was “significant reductions in cell viability”, the “decrease in viability (MTT) of primary neuronal cortical cells” value ([8]; highest concentration of thymalfasin used (3.3×10^−7M as printed)) was 30% and the “cell viability of primary neuronal cortical cells” value ([8]; serial dilutions, 3.3×10^−5 M to 1×10^−9 M, experimental doses) was “no decrease in cell viability”.
